Drawing on patent US20250313548A1 (Actio Biosciences, Inc., priority 2023, published 2025), this text covers IC50 for 22 molecules.

Bounds are passed on as bounds.

In this assay the target is human, KCNT1 (Homo sapiens (Human), UniProt Q5JUK3). Kind of assay: FLIPR Tl/K Flux Assay. It counts as cell-based. The settings on record: HEK293 cells stably expressing human KCNT1; Tl+ flux stimulated with EC80 of agonist Loxapine. The method, boiled down: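 Inhibition values come from a Hill-equation fit of % inhibition versus log concentration, using normalized fluorescence (Fmax/Fmin) over a 160 s read. The read followed stimulation with Tl+ plus EC80 agonist loxapine after 30 min compound pre-incubation at 25 °C. Cells were KCNT1-expressing HEK293, dye-loaded 1 h in pH 7.4 HEPES/HBSS with 5 mM probenecid.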
Chain of human, KCNT1 (Q5JUK3 whole entry): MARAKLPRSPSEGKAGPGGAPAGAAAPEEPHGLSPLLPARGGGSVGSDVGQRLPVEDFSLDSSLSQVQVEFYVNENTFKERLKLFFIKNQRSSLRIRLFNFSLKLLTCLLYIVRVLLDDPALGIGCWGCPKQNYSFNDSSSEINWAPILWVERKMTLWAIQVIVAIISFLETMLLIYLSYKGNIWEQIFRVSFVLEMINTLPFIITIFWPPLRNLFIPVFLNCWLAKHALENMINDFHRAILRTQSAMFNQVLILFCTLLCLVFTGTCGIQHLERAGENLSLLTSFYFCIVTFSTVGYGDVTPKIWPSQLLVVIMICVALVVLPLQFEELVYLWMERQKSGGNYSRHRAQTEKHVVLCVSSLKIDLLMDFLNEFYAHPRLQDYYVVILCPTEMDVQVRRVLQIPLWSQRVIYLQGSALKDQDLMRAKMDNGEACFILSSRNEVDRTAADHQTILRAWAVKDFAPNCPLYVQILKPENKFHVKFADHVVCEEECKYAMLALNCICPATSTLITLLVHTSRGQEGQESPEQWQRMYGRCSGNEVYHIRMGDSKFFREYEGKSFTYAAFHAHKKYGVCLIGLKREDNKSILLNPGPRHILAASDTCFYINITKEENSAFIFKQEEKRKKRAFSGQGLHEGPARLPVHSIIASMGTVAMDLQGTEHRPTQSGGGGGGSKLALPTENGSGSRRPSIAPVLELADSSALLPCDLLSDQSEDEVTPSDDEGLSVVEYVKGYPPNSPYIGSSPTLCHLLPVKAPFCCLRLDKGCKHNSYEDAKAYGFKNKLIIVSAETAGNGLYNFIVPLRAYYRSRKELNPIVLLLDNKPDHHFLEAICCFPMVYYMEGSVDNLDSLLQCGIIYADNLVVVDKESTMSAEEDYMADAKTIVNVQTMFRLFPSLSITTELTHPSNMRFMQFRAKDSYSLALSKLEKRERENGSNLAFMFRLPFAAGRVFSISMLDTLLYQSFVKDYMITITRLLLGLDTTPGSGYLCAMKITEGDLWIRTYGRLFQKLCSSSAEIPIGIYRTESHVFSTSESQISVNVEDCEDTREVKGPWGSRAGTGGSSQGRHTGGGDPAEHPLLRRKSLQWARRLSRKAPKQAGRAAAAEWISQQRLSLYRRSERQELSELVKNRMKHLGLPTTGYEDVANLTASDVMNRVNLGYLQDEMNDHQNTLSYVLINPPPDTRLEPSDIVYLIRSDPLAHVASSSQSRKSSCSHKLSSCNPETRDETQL
A word on the IC50: it is the concentration that gives 50% inhibition. Take `N#Cc1cc(F)cc(C(=O)N[C@H]2CCCn3nc(-c4ccnc(C(F)(F)F)c4)cc32)c1` [Compound I-320a, (S)-3-Cyano-5-fluoro-N-(2-(2-(trifluoromethyl)pyridin-4-yl)-4,5,6,7-tetrahydropyrazolo[1,5-a]pyridin-4-yl)benzamide]: the IC50 is less than 0.25 µM.
`N#Cc1cncc(C(=O)N[C@H]2CCCn3nc(-c4ccnc(C(F)(F)F)c4)cc32)n1` [Compound I-321a, (S)-6-Cyano-N-(2-(2-(trifluoromethyl)pyridin-4-yl)-4,5,6,7-tetrahydropyrazolo[1,5-a]pyridin-4-yl)pyrazine-2-carboxamide] gave an IC50 of less than 0.25 µM.
The value for `Cn1nc(C(F)(F)F)cc1C(=O)N[C@H]1CCCn2nc(-c3ccnc(CO)c3)cc21` [Compound I-322a, (S)—N-(2-(2-(Hydroxymethyl)pyridin-4-yl)-4,5,6,7-tetrahydropyrazolo[1,5-a]pyridin-4-yl)-1-methyl-3-(trifluoromethyl)-1H-pyrazole-5-carboxamide] was greater than 1 µM.
The value for `N#Cc1cc(F)cc(C(=O)N[C@H]2CCn3nc(-c4ccnc(C(F)(F)F)c4)cc32)c1` [Compound I-323a, (S)-3-Cyano-5-fluoro-N-(2-(2-(trifluoromethyl)pyridin-4-yl)-5,6-dihydro-4H-pyrrolo[1,2-b]pyrazol-4-yl)benzamide] was less than 0.25 µM; that for `Cn1nc(C(F)(F)F)nc1C(=O)N[C@H]1CCCCn2nc(-c3ccnc(C(F)(F)F)c3)cc21` [Compound I-324a, (S)-1-Methyl-3-(trifluoromethyl)-N-(2-(2-(trifluoromethyl)pyridin-4-yl)-5,6,7,8-tetrahydro-4H-pyrazolo[1,5-a]azepin-4-yl)-1H-1,2,4-triazole-5-carboxamide] was less than 0.25 µM.
The value for `Cc1nn(C(F)(F)F)cc1C(=O)N[C@H]1CCCn2nc(-c3ccnc(C(F)(F)F)c3)cc21` [Compound I-325a, (S)-3-Methyl-1-(trifluoromethyl)-N-(2-(2-(trifluoromethyl)pyridin-4-yl)-4,5,6,7-tetrahydropyrazolo[1,5-a]pyridin-4-yl)-1H-pyrazole-4-carboxamide] was less than 0.25 µM; that for `Cn1nc(C(F)(F)F)nc1C(=O)N[C@H]1CCCn2nc(-c3ccnc(C(F)(F)F)c3)cc21` [Compound I-326a, (S)-1-Methyl-3-(trifluoromethyl)-N-(2-(2-(trifluoromethyl)pyridin-4-yl)-4,5,6,7-tetrahydropyrazolo[1,5-a]pyridin-4-yl)-1H-1,2,4-triazole-5-carboxamide] was less than 0.25 µM.
Molecule `O=C(N[C@H]1CCCn2nc(-c3ccnc(C(F)(F)F)c3)cc21)c1ccnc(C(F)(F)F)n1` [Compound I-327a, (S)-2-(Trifluoromethyl)-N-(2-(2-(trifluoromethyl)pyridin-4-yl)-4,5,6,7-tetrahydropyrazolo[1,5-a]pyridin-4-yl)pyrimidine-4-carboxamide] displayed an IC50 of less than 0.25 µM.
The figure for `N#Cc1cc(C(=O)N[C@H]2CCCn3nc(-c4ccnc(C(F)(F)F)c4)cc32)ccn1` [Compound I-328a, (S)-2-Cyano-N-(2-(2-(trifluoromethyl)pyridin-4-yl)-4,5,6,7-tetrahydropyrazolo[1,5-a]pyridin-4-yl)isonicotinamide] is less than 0.25 µM; for `COc1cc(C(=O)N[C@H]2CCCCn3nc(-c4ccnc(C(F)(F)F)c4)cc32)ccn1` [Compound I-329a, (S)-2-Methoxy-N-(2-(2-(trifluoromethyl)pyridin-4-yl)-5,6,7,8-tetrahydro-4H-pyrazolo[1,5-a]azepin-4-yl)isonicotinamide] it is less than 0.25 µM.
The figure for `COc1cc(C(=O)N[C@H]2CCCn3nc(-c4ccnc(C(F)(F)F)c4)cc32)ccn1` [Compound I-330a, (S)-2-Methoxy-N-(2-(2-(trifluoromethyl)pyridin-4-yl)-4,5,6,7-tetrahydropyrazolo[1,5-a]pyridin-4-yl)isonicotinamide] is less than 0.25 µM.
The figure for `COc1cc(C(=O)N[C@H]2CCn3nc(-c4ccnc(C(F)(F)F)c4)cc32)ccn1` [Compound I-331a, (S)-2-Methoxy-N-(2-(2-(trifluoromethyl)pyridin-4-yl)-5,6-dihydro-4H-pyrrolo[1,2-b]pyrazol-4-yl)isonicotinamide] is less than 0.25 µM; for `COc1cc(C(=O)N[C@H]2CCc3nn(-c4ccnc(C(F)(F)F)c4)cc32)ccn1` [Compound I-332a, (S)-2-Methoxy-N-(2-(2-(trifluoromethyl)pyridin-4-yl)-2,4,5,6-tetrahydrocyclopenta[c]pyrazol-4-yl)isonicotinamide] it is less than 0.25 µM.
For `N#Cc1cc(C(=O)N[C@H]2CCCn3nc(-c4ccnc(C(F)(F)F)c4)cc32)cc(C2CC2)c1` [Compound I-333a, (S)-3-Cyano-5-cyclopropyl-N-(2-(2-(trifluoromethyl)pyridin-4-yl)-4,5,6,7-tetrahydropyrazolo[1,5-a]pyridin-4-yl)benzamide], the IC50 was less than 0.25 µM.
The figure for `Cc1cc(C#N)cc(C(=O)N[C@H]2CCn3nc(-c4ccnc(C(F)(F)F)c4)cc32)c1` [Compound I-334a, (S)-3-Cyano-5-methyl-N-(2-(2-(trifluoromethyl)pyridin-4-yl)-5,6-dihydro-4H-pyrrolo[1,2-b]pyrazol-4-yl)benzamide] is less than 0.25 µM.
In turn, `N#Cc1cccc(C(=O)N[C@H]2CCCCc3nn(-c4ccnc(C5CC5)c4)cc32)c1` [Compound I-335a, (S)-3-Cyano-N-(2-(2-cyclopropylpyridin-4-yl)-2,4,5,6,7,8-hexahydrocyclohepta[c]pyrazol-4-yl)benzamide] displayed a half-inhibitory concentration (IC50) of less than 0.25 µM.
The figure for `COc1cc(-n2cc3c(n2)CC[C@@H]3NC(=O)c2cc(C(F)(F)F)nn2C)cc(C)n1` [Compound I-336a, (S)-N-(2-(2-Methoxy-6-methylpyridin-4-yl)-2,4,5,6-tetrahydrocyclopenta[c]pyrazol-4-yl)-1-methyl-3-(trifluoromethyl)-1H-pyrazole-5-carboxamide] is 0.5 to 1 µM; for `CCOc1cc(-n2cc3c(n2)CC[C@@H]3NC(=O)c2cc(F)cc(F)c2)ccn1` [Compound I-337a, (S)-N-(2-(2-Ethoxypyridin-4-yl)-2,4,5,6-tetrahydrocyclopenta[c]pyrazol-4-yl)-3,5-difluorobenzamide] it is less than 0.25 µM; for `O=C(N[C@H]1CCCn2nc(-c3ccnc(C(F)(F)F)c3)cc21)c1cn(C(F)(F)F)nc1C(F)(F)F` [Compound I-338a, (S)-1,3-bis(trifluoromethyl)-N-(2-(2-(trifluoromethyl)pyridin-4-yl)-4,5,6,7-tetrahydropyrazolo[1,5-a]pyridin-4-yl)-1H-pyrazole-4-carboxamide] it is less than 0.25 µM.
With `O=C(N[C@H]1CCc2cnc(-c3ccnc(C(F)(F)F)c3)cc21)c1cc2cccnn2c1` [Compound I-340a], the IC50 is greater than 1 µM.
The value for `COc1cc(C#N)cc(C(=O)N[C@H]2CCCn3nc(-c4ccnc(C(F)(F)F)c4)cc32)c1` [Compound I-341a, (S)-3-Cyano-5-methoxy-N-(2-(2-(trifluoromethyl)pyridin-4-yl)-4,5,6,7-tetrahydropyrazolo[1,5-a]pyridin-4-yl)benzamide] was less than 0.25 µM; that for `N#Cc1cccc(C(=O)N[C@H]2CCn3nc(-c4ccnc(C(F)(F)F)c4)cc32)c1` [Compound I-342a, (S)-3-Cyano-N-(2-(2-(trifluoromethyl)pyridin-4-yl)-5,6-dihydro-4H-pyrrolo[1,2-b]pyrazol-4-yl)benzamide] was less than 0.25 µM.
